The values that follow come from article PMC7320180, “Hydroxamic acid derivatives as HDAC1, HDAC6 and HDAC8 inhibitors with antiproliferative activity in cancer cell lines” (Scientific Reports, 2020).

Like-named read-outs stand apart in the source and are kept apart here. Where only a bound is given, the exact number is not on record here.

For one experiment, the system named is MIA PaCa-2 cells. In words: MTT cytotoxicity test, MIA PaCa-2. The note with it: Homo sapiens, MIA PaCa-2, 72 h; MTT, 3 days; read-out: IC50 (µM) MIA PaCa-2. The format is cell-based. The procedure:
(§1) All compounds were evaluated in triplicate using six points, 1/3 dilutions, with the highest concentration of 50 µM. The triplicate measurements were placed in three different 96-plates, and 1% DMSO was used as a negative control.
(§2) The first sets of […] (GH38, GH18, GH27, FH38, FH18, […] and FH37) were evaluated in different cancer cell lines: HepG2, MCF-7, SH-SY5Y, MIA PaCa-2, and […]. Furthermore, the second series of eight compounds were evaluated using seven cell lines: SH-SY5Y which is a neuroblastoma cell line; HepG2, a hepatocellular carcinoma cell line; MIA PaCa-2, a human pancreatic carcinoma cell line; MCF-7, a breast cancer cell line; HCC1954, a basal-Her2+ breast carcinoma cell line; RCC4-VA, a renal carcinoma cell line with a VHL mutation; and RCC4-VHL, a renal carcinoma cell without the VHL mutation (wild type). The cells used were seeded in 96-well plates and left for 24 h (5% CO2 and 90% humidity, 50000 cells/well) and incubated for 3 days to study the cytotoxicity.

For another experiment, the system named is HCC1954 cells. The experiment in a line: MTT cytotoxicity test, HCC1954. The note with it: 3 days. The format is cell-based. The procedure: as §1, §2
The target of another experiment is T1, HDAC1 (Homo sapiens, UniProt Q13547).
T1 construct: purchased Enzo Life Sciences BML-AK511
In words: HDAC fluorometric enzymatic inhibition assay, HDAC1. It counts as biochemical.

In another experiment the target is T2, HDAC6 (Homo sapiens, UniProt Q9UBN7).
T2 construct: purchased Enzo Life Sciences BML-AK516
T2 sequence (Q9UBN7 1-1215): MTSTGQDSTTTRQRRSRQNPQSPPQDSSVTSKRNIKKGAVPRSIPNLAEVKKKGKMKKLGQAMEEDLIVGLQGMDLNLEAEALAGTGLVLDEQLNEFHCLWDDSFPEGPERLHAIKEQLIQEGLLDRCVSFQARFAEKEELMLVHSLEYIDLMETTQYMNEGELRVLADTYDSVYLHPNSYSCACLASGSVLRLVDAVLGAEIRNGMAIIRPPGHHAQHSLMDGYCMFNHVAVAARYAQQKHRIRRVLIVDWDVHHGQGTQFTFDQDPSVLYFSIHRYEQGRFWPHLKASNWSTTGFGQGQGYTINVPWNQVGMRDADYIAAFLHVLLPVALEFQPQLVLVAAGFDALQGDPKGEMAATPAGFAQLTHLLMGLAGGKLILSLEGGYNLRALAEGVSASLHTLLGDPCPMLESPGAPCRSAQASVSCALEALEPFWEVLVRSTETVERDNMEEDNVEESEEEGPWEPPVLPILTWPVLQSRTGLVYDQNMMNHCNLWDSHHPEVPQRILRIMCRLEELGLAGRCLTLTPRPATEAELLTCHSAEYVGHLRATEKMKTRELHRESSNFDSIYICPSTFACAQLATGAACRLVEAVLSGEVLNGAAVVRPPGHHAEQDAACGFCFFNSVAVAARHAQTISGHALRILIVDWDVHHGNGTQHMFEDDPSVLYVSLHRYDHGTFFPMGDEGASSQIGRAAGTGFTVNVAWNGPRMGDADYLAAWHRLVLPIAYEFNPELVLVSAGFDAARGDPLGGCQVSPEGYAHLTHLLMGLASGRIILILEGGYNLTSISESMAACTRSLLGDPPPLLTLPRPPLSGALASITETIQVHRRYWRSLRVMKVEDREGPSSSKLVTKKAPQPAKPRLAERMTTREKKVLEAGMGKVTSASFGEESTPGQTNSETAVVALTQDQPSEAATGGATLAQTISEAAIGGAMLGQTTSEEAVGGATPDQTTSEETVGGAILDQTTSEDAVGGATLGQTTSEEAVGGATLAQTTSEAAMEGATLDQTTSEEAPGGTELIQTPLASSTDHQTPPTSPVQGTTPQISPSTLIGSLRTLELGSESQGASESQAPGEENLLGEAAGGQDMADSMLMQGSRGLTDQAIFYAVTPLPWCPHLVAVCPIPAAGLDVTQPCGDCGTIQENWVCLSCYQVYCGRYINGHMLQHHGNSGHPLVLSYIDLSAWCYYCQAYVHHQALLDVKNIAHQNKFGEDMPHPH
The experiment in a line: HDAC fluorometric enzymatic inhibition assay, HDAC6. It counts as biochemical.

Another experiment concerns RCC4-VA cells. The experiment in a line: MTT cytotoxicity test, RCC4-VA. The format is cell-based. Conditions: 72 h, 3 days. The procedure: as §1, §2
For orientation: Formazan colour is commonly taken as a measure of viable cells.

In the next experiment the test system is MCF-7 cells. In words: MTT cytotoxicity test, MCF-7. It counts as cell-based. Conditions: Homo sapiens, MCF7, 72 h; MTT, 3 days; read-out: IC50 (µM) MCF-7. The protocol: as §1, §2
The next experiment deals with SH-SY5Y cells. The experiment in a line: MTT cytotoxicity test, SH-SY5Y. The format is cell-based. The note with it: Homo sapiens, 72 h, 3 days. The procedure:
as §1, §2

The next experiment has as its target T3, HDAC8 (Homo sapiens, UniProt Q9BY41).
T3 construct: purchased Enzo Life Sciences BML-AK518
T3 sequence (Q9BY41 1-377): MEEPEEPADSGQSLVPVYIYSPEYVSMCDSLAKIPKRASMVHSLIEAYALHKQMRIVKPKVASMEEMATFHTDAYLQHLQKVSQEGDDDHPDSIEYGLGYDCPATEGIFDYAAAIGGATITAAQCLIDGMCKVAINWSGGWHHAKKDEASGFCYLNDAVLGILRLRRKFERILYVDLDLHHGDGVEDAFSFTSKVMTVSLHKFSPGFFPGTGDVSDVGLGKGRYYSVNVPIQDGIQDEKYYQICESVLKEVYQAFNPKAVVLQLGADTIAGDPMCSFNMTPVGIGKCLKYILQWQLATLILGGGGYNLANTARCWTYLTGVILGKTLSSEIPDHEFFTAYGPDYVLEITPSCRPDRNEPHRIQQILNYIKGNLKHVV
In words: HDAC fluorometric enzymatic inhibition assay, HDAC8. It counts as biochemical.

The subject of the next experiment is HepG2 cells. The experiment in a line: MTT cytotoxicity test, HepG2. It counts as cell-based. Conditions: Homo sapiens, HepG2, 72 h; MTT, 3 days; read-out: IC50 (µM) HepG2. The procedure:
as §1, §2

The test system of another experiment is RCC4-VHL cells. The experiment in a line: MTT cytotoxicity test, RCC4-VHL. It counts as cell-based. The note with it: Homo sapiens, 72 h, 3 days. The procedure: as §1, §2
In a further experiment the test system is cancer cell lines. In words: Antiproliferative effect, cell line not stated. The note with it: second series, seven cancer cell lines. It counts as cell-based. The procedure: as §1, §2

As usually defined, the IC50 is the concentration that gives 50% inhibition.

T1 sequence (Q13547 whole entry): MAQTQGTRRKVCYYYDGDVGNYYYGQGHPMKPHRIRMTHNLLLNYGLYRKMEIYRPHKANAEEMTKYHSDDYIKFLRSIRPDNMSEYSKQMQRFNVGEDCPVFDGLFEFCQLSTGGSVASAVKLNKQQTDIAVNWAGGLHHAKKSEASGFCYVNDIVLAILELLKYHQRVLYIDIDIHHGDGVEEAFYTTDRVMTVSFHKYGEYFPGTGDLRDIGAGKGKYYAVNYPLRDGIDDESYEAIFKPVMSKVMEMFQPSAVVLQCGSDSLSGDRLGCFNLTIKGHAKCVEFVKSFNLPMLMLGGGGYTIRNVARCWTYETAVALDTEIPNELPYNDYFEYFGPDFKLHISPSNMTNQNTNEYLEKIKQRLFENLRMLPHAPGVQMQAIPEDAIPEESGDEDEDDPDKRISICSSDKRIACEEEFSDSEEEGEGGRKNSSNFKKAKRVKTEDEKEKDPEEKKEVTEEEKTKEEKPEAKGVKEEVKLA

Consider `CCCCc1ccc(C(=O)N[C@@H](Cc2cccc3ccccc23)C(=O)NO)cc1` [YSL-109, (S)-4-butyl-N-(1-(hydroxyamino)-3-(naphthalen-1-yl)-1-oxopropan-2-yl)benzamide], for which the IC50 in the experiment with MIA PaCa-2 cells is above 50 µM; in the experiment with HCC1954 cells, 3.77 µM; in the experiment on HCC1954 cells (Homo sapiens, HCC1954, 72 h) it was 3.41 µM; at HDAC1 (read-out: IC50 (nM) HDAC1), 259000 nM; at HDAC1 (read-out: IC50 HDAC1) it was 259000 nM; on HDAC6, 0.537 nM. The concentration for half-maximal inhibition (IC50) in the experiment on RCC4-VA cells worked out at 24.9 µM; with MCF-7 cells, 3.41 µM; in the experiment with SH-SY5Y cells, 6.42 µM; on HDAC8 (read-out: IC50 (nM) HDAC8) it was 2240 nM; on HDAC8 (read-out: IC50 HDAC8) it was 2240 nM; with HepG2 cells, 3.39 µM. It took 32.7 µM to reach half-maximal inhibition with RCC4-VHL cells (IC50). For the same compound, the “selectivity for HDAC6” value on HDAC6 (HDAC6 compared with HDAC8 and HDAC1) was found to be 4000 fold.
For `CCCCc1ccc(C(=O)N[C@H](C(=O)NO)c2ccccc2)cc1` [YSL-129, (S)-4-butyl-N-(2-(hydroxyamino)-2-oxo-1-phenylethyl)benzamide], the IC50 with MIA PaCa-2 cells was above 50 µM; with HCC1954 cells (Homo sapiens, HCC1954, 72 h) it was above 50 µM; in the experiment on RCC4-VA cells, above 50 µM; in the experiment on MCF-7 cells it was above 50 µM; in the experiment on SH-SY5Y cells, above 50 µM; in the experiment on HepG2 cells, above 50 µM. This compound showed an IC50 with RCC4-VHL cells above 50 µM. In addition, the biological activity entry in the experiment with cancer cell lines was “did not show biological activity”.
